Test results reported in ChEMBL document CHEMBL4428109, “Structure-activity relationship studies of non-carboxylic acid peroxisome proliferator-activated receptor α/δ (PPARα/δ) dual agonists” (Bioorg Med Chem, 2016).
Activity calls are given as the source filed them. The calls are words filed in the database; no cut-off is given here.

How the values were obtained:
[1] = target: T1, Retinoic acid receptor RXR-beta (Homo sapiens) (UniProt P28702); assay: Agonist activity at RXRbeta (unknown origin) at < 20 uM
T1 sequence (whole entry): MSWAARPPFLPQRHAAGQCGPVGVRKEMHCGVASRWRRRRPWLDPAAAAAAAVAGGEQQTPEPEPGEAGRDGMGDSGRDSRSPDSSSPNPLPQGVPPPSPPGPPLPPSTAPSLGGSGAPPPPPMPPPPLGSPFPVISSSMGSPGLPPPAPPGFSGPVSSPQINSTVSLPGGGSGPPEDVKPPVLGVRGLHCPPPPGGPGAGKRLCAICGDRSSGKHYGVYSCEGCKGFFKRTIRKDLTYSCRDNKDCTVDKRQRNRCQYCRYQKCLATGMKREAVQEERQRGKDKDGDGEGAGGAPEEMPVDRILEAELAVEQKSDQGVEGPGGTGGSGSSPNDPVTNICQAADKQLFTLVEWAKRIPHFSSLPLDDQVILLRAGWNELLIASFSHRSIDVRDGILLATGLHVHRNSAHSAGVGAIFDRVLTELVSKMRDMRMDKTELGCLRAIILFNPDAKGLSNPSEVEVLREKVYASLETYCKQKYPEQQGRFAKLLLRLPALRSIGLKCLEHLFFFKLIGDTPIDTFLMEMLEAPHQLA

[2] = target: T2, Peroxisome proliferator-activated receptor gamma (Homo sapiens) (UniProt P37231); assay: Agonist activity at N-terminal Gal4 fused human PPARgamma LBD transfected in HEK293 cells at < 10 uM after 24 hrs by luciferase reporter gene assay; format: cell-based
T2 sequence (whole entry): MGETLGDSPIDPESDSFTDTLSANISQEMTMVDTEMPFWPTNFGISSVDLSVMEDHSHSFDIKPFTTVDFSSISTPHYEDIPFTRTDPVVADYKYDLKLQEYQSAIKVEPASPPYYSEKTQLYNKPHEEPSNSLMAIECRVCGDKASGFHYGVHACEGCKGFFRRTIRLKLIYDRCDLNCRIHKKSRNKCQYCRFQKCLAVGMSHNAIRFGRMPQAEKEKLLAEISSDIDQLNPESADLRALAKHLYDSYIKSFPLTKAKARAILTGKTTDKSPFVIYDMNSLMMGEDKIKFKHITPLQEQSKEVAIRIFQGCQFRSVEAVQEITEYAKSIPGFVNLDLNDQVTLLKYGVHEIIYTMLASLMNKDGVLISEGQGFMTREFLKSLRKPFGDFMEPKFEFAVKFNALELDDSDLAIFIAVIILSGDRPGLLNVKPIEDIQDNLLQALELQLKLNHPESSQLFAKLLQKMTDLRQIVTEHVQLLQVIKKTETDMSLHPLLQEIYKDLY

[3] = target: T3, Peroxisome proliferator-activated receptor delta (Homo sapiens, UniProt Q03181); assay: Agonist activity at N-terminal Gal4 fused human PPARdelta LBD transfected in HEK293 cells after 24 hrs by luciferase reporter gene assay; format: cell-based
T3 sequence (Q03181 whole entry): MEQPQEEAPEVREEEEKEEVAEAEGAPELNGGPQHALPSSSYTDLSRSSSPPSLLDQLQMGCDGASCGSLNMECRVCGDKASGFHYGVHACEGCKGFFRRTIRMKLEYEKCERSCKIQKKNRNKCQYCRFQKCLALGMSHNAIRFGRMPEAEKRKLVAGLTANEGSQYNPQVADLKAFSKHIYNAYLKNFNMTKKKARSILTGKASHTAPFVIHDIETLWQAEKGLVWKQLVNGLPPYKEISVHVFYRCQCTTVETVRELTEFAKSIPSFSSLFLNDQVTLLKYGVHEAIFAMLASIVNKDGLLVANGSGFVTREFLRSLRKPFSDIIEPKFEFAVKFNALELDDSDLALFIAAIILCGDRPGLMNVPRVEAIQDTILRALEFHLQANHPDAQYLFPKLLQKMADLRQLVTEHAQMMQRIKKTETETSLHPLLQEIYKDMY

[4] = target: T4, Peroxisome proliferator-activated receptor delta (Homo sapiens) (UniProt Q03181); assay: Agonist activity at N-terminal Gal4 fused human PPARdelta LBD transfected in HEK293 cells after 24 hrs by luciferase reporter gene assay relative to GW501516; format: cell-based
T4 sequence (whole entry): T3 sequence (Q03181 whole entry)

[5] = target: T5, Peroxisome proliferator-activated receptor alpha (Homo sapiens, UniProt Q07869); assay: Agonist activity at N-terminal Gal4 fused human PPARalpha LBD transfected in HEK293 cells after 24 hrs by luciferase reporter gene assay; format: cell-based
T5 sequence (Q07869 whole entry): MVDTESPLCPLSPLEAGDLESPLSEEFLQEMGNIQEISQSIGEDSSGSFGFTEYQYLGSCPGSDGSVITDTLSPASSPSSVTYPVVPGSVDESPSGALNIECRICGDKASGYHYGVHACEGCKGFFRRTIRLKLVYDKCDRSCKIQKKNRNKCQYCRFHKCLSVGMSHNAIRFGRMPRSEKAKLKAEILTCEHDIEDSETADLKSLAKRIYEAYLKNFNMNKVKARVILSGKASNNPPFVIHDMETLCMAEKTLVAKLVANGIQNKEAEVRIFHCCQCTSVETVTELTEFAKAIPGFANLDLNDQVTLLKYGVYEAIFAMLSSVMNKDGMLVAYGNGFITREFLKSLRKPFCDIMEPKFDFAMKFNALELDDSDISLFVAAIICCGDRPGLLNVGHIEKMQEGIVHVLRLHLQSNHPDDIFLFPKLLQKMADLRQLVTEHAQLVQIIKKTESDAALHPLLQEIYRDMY

Activity [1]: inactive
Activity [2]: inactive
EC50 [3]: 46 nM
Emax [4]: 5 to 10%
EC50 [5]: 33 nM
SMILES: CC(=O)NC(C)c1nc(-c2ccc(Oc3ccc(OCc4ccccc4)cc3)cc2)no1 (stereo not given)
